Results from paper PMC12367851, “In vitro CB1 receptor activity of halogenated indazole synthetic cannabinoid receptor agonists” (Archives of Toxicology, 2025).

Target: human CB1 receptor (Homo sapiens, UniProt P21554)
Assay: AequoScreen CB1 assay (intracellular Ca2+ release, CHO-K1 cells, apoaequorin/Gα16)
Conditions: for Emax: CHO-K1, read-out: Efficacy (% of JWH-018) Emax; for Efficacy (Emax) Mean Diff: Brown-Forsythe and Welch ANOVA; for fold difference of each other (potency): brominated SCRAs with pent-4-enyl, butyl and pentyl tails; for fold less potent than the butyl (ADB-5′Br-BUTINACA): brominated ADB SCRAs with different tails; for fold weaker in potency than JWH-018: EC50 ratio vs JWH-018
[1] = Compound 1 vs Compound 2 = AB-5’Cl-BUTINACA
[2] = Compound 1 vs Compound 2 = ADB-5’Br-BUTINACA
[3] = Compound 1 vs Compound 2 = ADB-5’Cl-BUTINACA
[4] = Compound 1 vs Compound 2 = MDMB-5’Cl-BUTINACA
[5] = Compound 1 vs Compound 2 = MMB-5’Cl-BUTINACA
[6] = Compound 1 vs Compound 2 = ADB-5’F-BUTINACA
[7] = Compound 1 vs Compound 2 = MDMB-5’F-BUTINACA
[8] = Compound 1 vs Compound 2 = MMB-5’F-BUTINACA
[9] = Compound 1 vs Compound 2 = MDMB-4en-5’Br-PINACA (also printed MDMB-5’Br-4en-PINACA)
[10] = Compound 1 vs Compound 2 = ADB-4en-5’Br-PINACA
[11] = Compound 1 vs Compound 2 = ADB-5’Br-PINACA
[12] = Compound 1 vs Compound 2 = MDMB-BUTINACA
[13] = Compound 1 vs Compound 2 = MDMB-INACA

Sequence of human CB1 receptor (P21554 whole entry): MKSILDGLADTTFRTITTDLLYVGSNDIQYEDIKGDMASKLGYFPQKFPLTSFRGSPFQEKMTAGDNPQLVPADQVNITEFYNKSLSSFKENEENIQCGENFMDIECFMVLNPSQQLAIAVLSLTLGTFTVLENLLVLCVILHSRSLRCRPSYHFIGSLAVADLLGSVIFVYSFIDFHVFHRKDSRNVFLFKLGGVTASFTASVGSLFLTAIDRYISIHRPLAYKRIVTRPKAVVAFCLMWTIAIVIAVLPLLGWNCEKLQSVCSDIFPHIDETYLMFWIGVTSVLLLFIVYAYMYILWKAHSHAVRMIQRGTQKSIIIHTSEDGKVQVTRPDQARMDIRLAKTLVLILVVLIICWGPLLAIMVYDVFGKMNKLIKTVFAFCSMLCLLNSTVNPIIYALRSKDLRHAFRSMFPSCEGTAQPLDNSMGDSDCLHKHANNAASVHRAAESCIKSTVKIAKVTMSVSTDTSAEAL

CCCCn1nc(C(=O)NC(C(N)=O)C(C)C)c2cc(Br)ccc21 (centres unmarked) [AB-5′Br-BUTINACA]
EC50: 44.6 nM | Emax: 115% | Efficacy (Emax) Mean Diff [1]: 2.92 | Efficacy (Emax) Mean Diff (Compound 1 vs Compound 2 = AB-5’F-BUTINACA): 7.90 | Efficacy (Emax) Mean Diff [2]: 5.08 | Efficacy (Emax) Mean Diff (Compound 1 vs Compound 2 = MDMB-5’Br-BUTINACA): 1.26 | Efficacy (Emax) Mean Diff (Compound 1 vs Compound 2 = MMB-5’Br-BUTINACA): 9.47

CCCCn1nc(C(=O)NC(C(N)=O)C(C)C)c2cc(Cl)ccc21 (centres unmarked) [AB-5′Cl-BUTINACA]
EC50: 57.7 nM | Emax: 112% | Efficacy (Emax) Mean Diff [3]: -0.67 | Efficacy (Emax) Mean Diff [4]: 2.14 | Efficacy (Emax) Mean Diff [5]: 2.74

CCCCn1nc(C(=O)NC(C(N)=O)C(C)C)c2cc(F)ccc21 (centres unmarked) [AB-5′F-BUTINACA]
EC50: 18.7 nM | Emax: 107% | Efficacy (Emax) Mean Diff [1]: -4.99 | Efficacy (Emax) Mean Diff [6]: -6.01 | Efficacy (Emax) Mean Diff [7]: -4.12 | Efficacy (Emax) Mean Diff [8]: 0.24

C=CCCCn1nc(C(=O)NC(C(N)=O)C(C)(C)C)c2cc(Br)ccc21 (centres unmarked) [ADB-4en-5′Br-PINACA, N-(1-amino-3,3-dimethyl-1-oxobutan-2-yl)−5-bromo-1-(pent-4-en-1-yl)−1H-indazole-3-carboxamide]
EC50: 14.2 nM | Emax: 111% | Efficacy (Emax) Mean Diff [9]: -8.94 | fold difference of each other (potency): ≤ 1.4 fold

CC(C)(C)C(NC(=O)c1nn(Cc2ccc(F)cc2)c2ccc(Br)cc12)C(N)=O (centres unmarked) [ADB-5′Br-FUBINACA]
EC50: 42.1 nM | Emax: 112% | Efficacy (Emax) Mean Diff [10]: 1.04 | Efficacy (Emax) Mean Diff [11]: 4.13 | fold less potent than the butyl (ADB-5′Br-BUTINACA) (EC50 ratio): 2.3 fold

CC(C)(C)C(NC(=O)c1n[nH]c2ccc(Br)cc12)C(N)=O (centres unmarked) [ADB-5′Br-INACA, N-[1-amino-3,3-dimethyl-1-oxobutan-2-yl]−5-bromo-1H-indazole-3-carboxamide]
EC50: 2290 nM | Emax: 111% | Efficacy (Emax) Mean Diff [10]: -0.21 | Efficacy (Emax) Mean Diff [2]: 1.04 | Efficacy (Emax) Mean Diff (Compound 1 vs Compound 2 = ADB-5’Br-FUBINACA): -1.25 | Efficacy (Emax) Mean Diff [11]: 2.88 | fold weaker in potency than JWH-018: 100 fold | fold less potent than the butyl (ADB-5′Br-BUTINACA) (EC50 ratio): 127 fold

CCCCCn1nc(C(=O)NC(C(N)=O)C(C)(C)C)c2cc(Br)ccc21 (centres unmarked) [ADB-5′Br-PINACA, N-(1-amino-3,3-dimethyl-1-oxobutan-2-yl)−5-bromo-1-pentyl-1H-indazole-3-carboxamide]
EC50: 19.8 nM | Emax: 108% | Efficacy (Emax) Mean Diff [10]: -3.10 | fold difference of each other (potency): ≤ 1.4 fold

CCCCn1nc(C(=O)NC(C(N)=O)C(C)(C)C)c2cc(Cl)ccc21 (centres unmarked) [ADB-5′Cl-BUTINACA]
EC50: 30.1 nM | Emax: 113% | Efficacy (Emax) Mean Diff (Compound 1 vs Compound 2 = ADB-BUTINACA): -12.82 | Efficacy (Emax) Mean Diff [4]: 2.80 | fold less potent than ADB-BUTINACA (EC50 ratio vs non-halogenated analog ADB-BUTINACA): 1.4 fold

C=CCCCn1nc(C(=O)NC(C(=O)OC)C(C)(C)C)c2cc(Br)ccc21 (centres unmarked) [MDMB-4en-5′Br-PINACA, methyl 2-{[5-bromo-1-(pent-4-en-1-yl)−1H-indazole-3-carbonyl]amino}−3,3-dimethylbutanoate]
EC50: 44.6 nM | Emax: 120% | Efficacy (Emax) Mean Diff (Compound 1 vs Compound 2 = MDMB-4en-PINACA): 11.19 | fold less potent than MDMB-4en-PINACA (EC50 ratio vs non-halogenated analog MDMB-4en-PINACA): 2.5 fold | fold difference of each other (potency): ≤ 1.4 fold

C=CCCCn1nc(C(=O)NC(C(=O)OC)C(C)(C)C)c2ccccc21 (centres unmarked) [MDMB-4en-PINACA, reference compound]
EC50: 17.9 nM | Emax: 109%

CCCCn1nc(C(=O)NC(C(=O)OC)C(C)(C)C)c2cc(Br)ccc21 (centres unmarked) [MDMB-5′Br-BUTINACA]
EC50: 42.4 nM | Emax: 114% | Efficacy (Emax) Mean Diff [9]: -6.38 | Efficacy (Emax) Mean Diff [4]: 3.79 | Efficacy (Emax) Mean Diff [7]: 2.52 | Efficacy (Emax) Mean Diff [12]: -7.53 | fold less potent than MDMB-BUTINACA (EC50 ratio vs non-halogenated analog MDMB-BUTINACA): 4.8 fold | fold difference of each other (potency): ≤ 1.4 fold

COC(=O)C(NC(=O)c1n[nH]c2ccc(Br)cc12)C(C)(C)C (centres unmarked) [MDMB-5′Br-INACA, methyl 2-[5-bromo-1H-indazole-3-carboxamido]−3,3-dimethylbutanoate]
EC50: 2200 nM | Emax: 110% | Efficacy (Emax) Mean Diff [13]: -2.31 | fold weaker in potency than JWH-018: 100 fold | fold more potent than MDMB-INACA (EC50 ratio, tail-less SCRAs): 1.7 fold

CCCCn1nc(C(=O)NC(C(=O)OC)C(C)(C)C)c2cc(Cl)ccc21 (centres unmarked) [MDMB-5′Cl-BUTINACA]
EC50: 10.6 nM | Emax: 110% | Efficacy (Emax) Mean Diff [12]: -11.32

CCCCn1nc(C(=O)NC(C(=O)OC)C(C)(C)C)c2cc(F)ccc21 (centres unmarked) [MDMB-5′F-BUTINACA]
EC50: 5.75 nM | Emax: 111% | Efficacy (Emax) Mean Diff [4]: 1.27 | Efficacy (Emax) Mean Diff [12]: -10.05

COC(=O)C(NC(=O)c1n[nH]c2ccc(C)cc12)C(C)(C)C (centres unmarked) [MDMB-5′Me-INACA, methyl 3,3-dimethyl-2-[(5-methyl-1H-indazole-3-carbonyl)amino]butanoate]
EC50: 1370 nM | Emax: 113% | Efficacy (Emax) Mean Diff (Compound 1 vs Compound 2 = MDMB-5’Br-INACA): 3.46 | Efficacy (Emax) Mean Diff [13]: 1.15 | fold more potent than MDMB-5′Br-INACA (EC50 ratio, tail-less SCRAs): 1.6 fold | fold more potent than MDMB-INACA (EC50 ratio, tail-less SCRAs): 2.7 fold

CCCCn1nc(C(=O)NC(C(=O)OC)C(C)(C)C)c2ccccc21 (centres unmarked) [MDMB-BUTINACA, reference compound]
EC50: 8.9 nM | Emax: 121%

COC(=O)C(NC(=O)c1n[nH]c2ccccc12)C(C)(C)C (centres unmarked) [MDMB-INACA, reference compound]
EC50: 3690 nM | Emax: 112%

CCCCn1nc(C(=O)NC(C(=O)OC)C(C)C)c2cc(Br)ccc21 (centres unmarked) [MMB-5′Br-BUTINACA]
EC50: 259 nM | Emax: 105% | Efficacy (Emax) Mean Diff [2]: -4.38 | Efficacy (Emax) Mean Diff [5]: -3.81 | Efficacy (Emax) Mean Diff [8]: -1.32

CCCCn1nc(C(=O)NC(C(=O)OC)C(C)C)c2cc(Cl)ccc21 (centres unmarked) [MMB-5′Cl-BUTINACA]
EC50: 148 nM | Emax: 109% | Efficacy (Emax) Mean Diff [3]: -3.40 | Efficacy (Emax) Mean Diff [4]: -0.60

CCCCn1nc(C(=O)NC(C(=O)OC)C(C)C)c2cc(F)ccc21 (centres unmarked) [MMB-5′F-BUTINACA]
EC50: 26.4 nM | Emax: 107% | Efficacy (Emax) Mean Diff [6]: -6.25 | Efficacy (Emax) Mean Diff [7]: -4.36 | Efficacy (Emax) Mean Diff [5]: -2.49
